These compounds were tested against Ras-related protein Rab-2A (Canis lupus familiaris) (UniProt P61105) (assay: wildtype Rab2 GTP-binding inhibitors, SAR follow-up, biochemical, multiplex dose response, Bodipy-FL-GTP, flow cytometry (AID 2033)). Settings: GST-Rab2 beads, Ki calculated from EC50.
Sequence of Ras-related protein Rab-2A (Canis lupus familiaris) (P61105 whole entry, looked up): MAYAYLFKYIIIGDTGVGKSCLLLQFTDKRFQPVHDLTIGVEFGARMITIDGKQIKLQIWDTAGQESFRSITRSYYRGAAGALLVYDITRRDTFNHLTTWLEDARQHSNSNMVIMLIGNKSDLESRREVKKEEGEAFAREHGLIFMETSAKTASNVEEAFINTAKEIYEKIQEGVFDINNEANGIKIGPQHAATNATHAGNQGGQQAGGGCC

Structure (SMILES)	Ki
Cc1ccc(C)c(N2CCN(C(=O)CCc3nc(-c4ccc(Br)cc4)no3)CC2)c1	190 nM
COc1ccc(-c2cc(CCC(=O)N3CCN(c4cc(C)ccc4C)CC3)on2)cc1	160 nM
Cc1ccc(C)c(N2CCN(C(=O)CCc3nc(-c4ccccc4Br)no3)CC2)c1	200 nM
COc1ccc(-c2ccc(CCC(=O)N3CCN(c4cc(C)ccc4C)CC3)s2)cc1	160 nM
Cc1ccc(C)c(N2CCN(C(=O)CCc3nc(-c4ccccc4)no3)CC2)c1	50 nM
Cc1ccc(C)c(N2CCN(C(=O)CCc3nc(-c4ccccc4F)no3)CC2)c1	60 nM
COc1ccc(-c2noc(CCC(=O)N3CCC(c4cc(C)ccc4C)CC3)n2)cc1	160 nM
Cc1ccc(C)c(N2CCN(C(=O)CCc3nc(-c4ccc(F)cc4)no3)CC2)c1	20 nM
Cc1ccc(C)c(N2CCN(C(=O)CCc3nc(-c4ccccc4C)no3)CC2)c1	110 nM
COc1ccc(-c2ccc(CCC(=O)N3CCN(c4cc(C)ccc4C)CC3)[nH]2)cc1	330 nM
COc1ccc(-c2ccc(CCC(=O)N3CCN(c4cc(C)ccc4C)CC3)o2)cc1	960 nM
Cc1cccc(-c2noc(CCC(=O)N3CCN(c4cc(C)ccc4C)CC3)n2)c1	80 nM
Cc1ccc(C)c(N2CCN(C(=O)CCc3nc(-c4cccc(Br)c4)no3)CC2)c1	230 nM

Next, values leading:

Ki	Structure (SMILES)
150 nM	COc1ccc(-c2noc(CCC(=O)N3CCN(c4ccccc4Cl)CC3)n2)cc1
80 nM	COc1ccc(-c2noc(CCC(=O)N3CCN(c4ccccc4OC)CC3)n2)cc1
110 nM	Cc1ccc(C)c(N2CCN(C(=O)CCc3nc(-c4ccc(Cl)cc4)no3)CC2)c1
210 nM	COc1ccc(-c2noc(CCC(=O)N3CCN(c4ccccc4Br)CC3)n2)cc1
180 nM	Cc1ccc(C)c(N2CCN(C(=O)CCc3nc(-c4cccc(Cl)c4)no3)CC2)c1
160 nM	COc1ccc(-c2noc(CCC(=O)N3CCN(c4ccccc4C)CC3)n2)cc1
1030 nM	COc1ccc(-c2noc(CCCC(=O)N3CCN(c4cc(C)ccc4C)CC3)n2)cc1
50 nM	COc1ccc(-c2noc(CCC(=O)N3CCN(c4ccc(C)cc4)CC3)n2)cc1
150 nM	COc1ccc(-c2noc(CCC(=O)N3CCN(c4cccc(C)c4C)CC3)n2)cc1
250 nM	COc1cccc(-c2noc(CCC(=O)N3CCN(c4cc(C)ccc4C)CC3)n2)c1
50 nM	COc1ccc(-c2noc(CCC(=O)N3CCN(c4ccccc4F)CC3)n2)cc1
260 nM	Cc1ccc(-c2noc(CCC(=O)N3CCN(c4cc(C)ccc4C)CC3)n2)cc1
130 nM	COc1ccc(-c2noc(CCC(=O)N3CCN(c4ccccc4C(F)(F)F)CC3)n2)cc1
540 nM	COc1ccc(-c2noc(CCC(=O)N3CCN(c4cccc(Cl)c4)CC3)n2)cc1
160 nM	COc1ccc(-c2noc(CCC(=O)N3CCN(c4cc(C)ccc4C)CC3)n2)cc1
410 nM	COc1ccc(-c2noc(CCC(=O)N3CCN(c4cccc(OC)c4)CC3)n2)cc1

Reference: PubChem BioAssay AID2033 (NMMLSC, 2009)
